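Step 1: Grow cells in 96-well plates. Step 2: Expose to compound for 48 hours at 5 concentrations. Step 3: Interpolate endpoints linearly; if unreached, use highest concentration. GI50 marks 50% less growth. TGI marks complete inhibition of growth.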
Assays:
Experiment in all cases: growth of human tumour cells (NCI), 48 h
A498 renal = tested on: A498 renal
CAKI-1 renal = tested on: CAKI-1 renal
COLO 205 colon = tested on: COLO 205 colon
LOX IMVI melanoma = tested on: LOX IMVI melanoma
NCI-H226 lung = tested on: NCI-H226 lung
NCI-H460 lung = tested on: NCI-H460 lung
OVCAR-4 ovarian = tested on: OVCAR-4 ovarian
RPMI-8226 leukemia = tested on: RPMI-8226 leukemia
SF-268 CNS = tested on: SF-268 CNS
SF-539 CNS = tested on: SF-539 CNS

SMILES | GI50 (A498 renal) | TGI (A498 renal) | GI50 (CAKI-1 renal) | TGI (CAKI-1 renal) | GI50 (COLO 205 colon) | TGI (COLO 205 colon) | GI50 (LOX IMVI melanoma) | TGI (LOX IMVI melanoma) | GI50 (NCI-H226 lung) | TGI (NCI-H226 lung) | GI50 (NCI-H460 lung) | TGI (NCI-H460 lung) | GI50 (OVCAR-4 ovarian) | TGI (OVCAR-4 ovarian) | GI50 (RPMI-8226 leukemia) | TGI (RPMI-8226 leukemia) | GI50 (SF-268 CNS) | TGI (SF-268 CNS) | GI50 (SF-539 CNS) | TGI (SF-539 CNS)
CS(=O)(=O)c1ccc2c(c1)C(=O)c1c-2n(CCCBr)c(=O)c2cc([N+](=O)[O-])ccc12 | 0.127 µM | 14.8 µM | 16.4 µM | > 100 µM | > 100 µM | > 100 µM | 5.77 µM | > 100 µM | 26.5 µM | > 100 µM | 0.718 µM | > 100 µM | 47.4 µM | > 100 µM | 1.68 µM | 42.8 µM | 9.59 µM | > 100 µM | 24 µM | > 100 µM
Cc1cncc(-c2nc(NCCc3c[nH]c4ccccc34)c3ncn(C(C)C)c3n2)c1 | 3.4 µM | 16.9 µM | 4.12 µM | 30.4 µM | 2.9 µM | 7.26 µM | 4.61 µM | 15.5 µM | 4.69 µM | 20.5 µM | 3.33 µM | 13.3 µM | 3.93 µM | 39.6 µM | 2.28 µM | 5.23 µM | 5.93 µM | 38.6 µM | 3.64 µM | 12.4 µM
O=C(CN1CCN(CCN2C(=O)c3cccc4cccc(c34)C2=O)CC1)Nc1ccc2ncsc2c1 | 22.3 µM | > 100 µM | 4.91 µM | > 100 µM | 5.44 µM | 54.6 µM | 4.93 µM | 20.4 µM | 7.58 µM | > 100 µM | 3.58 µM | 14.7 µM | 11.3 µM | 26.5 µM | 9.39 µM | 38.1 µM | 6.07 µM | 25 µM | 6.43 µM | 20.5 µM
Cc1ccc(S(=O)(=O)OCC(=O)Nc2ccc(C(=O)O)c(O)c2)cc1 | 36.4 µM | 105 µM | 14.7 µM | 91.1 µM | 113 µM | 259 µM | 20.8 µM | 61 µM | 30.9 µM | 139 µM | 124 µM | 292 µM | 26.8 µM | 143 µM | 138 µM | 346 µM | 19.5 µM | 53.5 µM | 24.7 µM | 72.2 µM
O=C(NCCCl)NCCN1c2nc3ccccc3cc2Sc2cc3ccccc3nc21 | 4.58 µM | 24.7 µM | 14.7 µM | > 55.3 µM | 1.32 µM | 2.66 µM | 2.36 µM | 14.6 µM | 1.82 µM | 19 µM | 0.475 µM | 1.94 µM | 0.9 µM | > 23.4 µM | 0.245 µM | 1.64 µM | 3.63 µM | > 41 µM | 3.14 µM | 17.7 µM

Reference: PubChem BioAssay (NCI)
